According to patent US20150354009A1, “COLORECTAL CANCER CLASSIFICATION WITH DIFFERENTIAL PROGNOSIS AND PERSONALIZED THERAPEUTIC RESPONSES” (ECOLE POLYTECHNIQUE FEDERALE DE LAUSANNE (EPFL), priority 2012, published 2015):

Tested on: CRC cell lines
Experiment: Drug response in cell lines (CellTiter-Glo proliferation, 72 h)
Assay type: cell-based, human
Details: PHA-665752 125 nM, relative to vehicle-treated cells (FIG. 3E)
Procedure: Colon cancer cell lines were grown in DMEM (Gibco, USA) plus 10% FBS (Invitrogen, USA) without antibiotics/antimycotics. All the cell lines were confirmed to be negative for mycoplamsa by PCR (VenorGeM kit, Sigma, USA) prior to use and were tested monthly.
Proliferation was monitored using CellTiter-Glo® assay kit according to the manufacturer's instruction (Promega, Dubendorf, Switzerland) on day 3 (72 h).

Structure (SMILES): Cc1[nH]c(/C=C2\C(=O)Nc3ccc(S(=O)(=O)Cc4c(Cl)cccc4Cl)cc32)c(C)c1C(=O)N1CCC[C@@H]1CN1CCCC1 [cMet inhibitor, PHA-665752]
- sensitivity to cMet inhibition, CR-TA versus CS-TA cell lines: CR-TA cell lines were much more sensitive to cMet inhibition than CS-TA cell lines
